In one assay the test system is NCI-H460/R cells. Description: Combined treatment of compound 5 with DOX, MTT, median effect analysis. The assay is classed as cell-based, human. The conditions noted are these: for Relative Reversal: DOX resistance; for IC50: Homo sapiens, NCI-H460, 72 h. The method, then:
(§1) The combined effects of compound 5 with DOX as well as with PTX were studied in NCI-H460/R and DLD1-TxR cells, respectively, by MTT assay. In simultaneous treatments that lasted 72 h in NCI-H460/R cells, three concentrations of compound 5 (2.5, 5, and 10 µM) were combined with increasing concentrations of DOX (250, 500 and 1000 nM), while in DLD1-TxR cells different concentrations of compound 5 (1, 2.5, and 5 µM) were combined with increasing concentrations of PTX (100, 250 and 500 nM). The nature of the interaction between Hsp90 inhibitors and DOX/PTX was analyzed with CalcuSyn software v1.1 (Biosoft, Cambridge, UK) that uses the Combination Index method based on the multiple drug effect equation [54]. Three data points were used for each single drug in each experiment. The non-constant ratio combination was chosen to assess the effect of both drugs in combination. The results are presented in a fraction-affected CI graph. Values of CI < 1 point to a pronounced additive effect or synergism (the smaller value, the greater the degree of synergy). A value of CI = 1 indicates an additive effect, while values of CI > 1 point to an antagonistic effect.

The next assay concerns DLD1-TxR cells. Description: Combined treatment of compound 5 with PTX, MTT, median effect analysis. It counts as cell-based, human. The conditions noted are these: PTX resistance. Here is the method: as §1

Here are results for one compound from paper PMC6770006, “Novel Heat Shock Protein 90 Inhibitors Suppress P-Glycoprotein Activity and Overcome Multidrug Resistance in Cancer Cells” (International Journal of Molecular Sciences, 2019).

The structures appear in SMILES notation.

As usually defined, the IC50 is the midpoint of a concentration-inhibition curve. With `O=C1c2ccccc2C(=O)c2c(-c3ccccc3O)noc21` [Compound 5], the “Relative Reversal” value in the assay with NCI-H460/R cells (2.5 µM compound 5) was found to be 1.31; with NCI-H460/R cells (5 µM compound 5), 2.62; in the assay with NCI-H460/R cells (10 µM compound 5) it was 5.28; in the assay with DLD1-TxR cells (1 µM compound 5), 1.80; in the assay with DLD1-TxR cells (2.5 µM compound 5) it was 2.60; in the assay on DLD1-TxR cells (5 µM compound 5), 5.27. In addition, the concentration for half-maximal inhibition (IC50) came out at 1730 ± 30.9 nM in the assay with NCI-H460/R cells (DOX + 2.5 µM compound 5, 72 h); 864 ± 25.6 nM with NCI-H460/R cells (DOX + 5 µM compound 5, 72 h); 429 ± 13.3 nM in the assay on NCI-H460/R cells (DOX + 10 µM compound 5, 72 h).
